The nature of series [1]: log P by HPLC on reversed-phase column (C 18), EEC Directive 79831 Annex V.A8. In kind it is physicochemical. The settings on record: for logP: HPLC reversed-phase C 18, 40° C., 0.1% aqueous formic acid and acetonitrile gradient, several values = mixture of two or more isomers. The procedure, abridged: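 Reversed-phase C18 HPLC at 40° C, 0.1% aqueous formic acid/acetonitrile linear gradient 10% to 90% acetonitrile, per EEC Directive 79831 Annex V.A8. log P obtained from retention time by linear interpolation between unbranched alkan-2-ones (C3-C16) of known log P.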

Series [2] relates to Sphaerotheca fuliginea. As to the kind of experiment: Example A: in vivo preventive test on Sphaerotheca fuliginea (cucumber). The note with it: 500 ppm of active ingredient, evaluated 7 days after inoculation. The protocol: In Vivo Preventive Test on Sphaerotheca fuliginea (Cucumber) Solvent: 49 parts by weight of N,N-dimethylformamide Emulsifier: 1 part by weight of alkylarylpolyglycolether To produce a suitable preparation of active compound, 1 part by weight of active compound is mixed with the stated amounts of solvent and emulsifier, and the concentrate is diluted with water to the desired concentration. To test for preventive activity, young plants are sprayed with the preparation of active compound at the stated rate of application. One day after this treatment, the plants are inoculated with an aqueous spore suspension of Sphaerotheca fuliginea. Then the plants are placed in a greenhouse at approximately 23° C. and a relative atmospheric humidity of approximately 70%.

The test system of another series is Botrytis cinerea. As to the kind of experiment: Example O: in vivo protective test on Botrytis cinerea (beans). The note with it: 100 ppm of active ingredient, lesion size 2 days after inoculation. The protocol: In Vivo Protective Test on Botrytis cinerea (Beans)
Solvent: 24.5 parts by weight of acetone • 24.5 parts by weight of N,N-dimethylacetamide
(§1) Emulsifier: 1 part by weight of alkylaryl polyglycol ether
To produce a suitable preparation of active compound, 1 part by weight of active compound is mixed with the stated amounts of solvent and emulsifier, and the concentrate is diluted with water to the desired concentration.
To test for preventive activity, young plants are sprayed with the preparation of active compound. After the spray coating has dried on, 2 small pieces of agar covered with growth of Botrytis cinerea are placed on each leaf. The inoculated plants are placed in a darkened chamber at 20° C. and a relative atmospheric humidity of 100%.
2 days after the inoculation, the size of the lesions on the leaves is evaluated. 0% means an efficacy which corresponds to that of the untreated control, while an efficacy of 100% means that no disease is observed.

In another series the test system is Pyrenophora teres. Description: Example E: in vivo preventive test on Pyrenophora teres (barley), DMF/emulsifier preparation. The note with it: 500 ppm of active ingredient, evaluated 7-9 days after inoculation. Put shortly: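 Young barley plants sprayed preventively with compound formulated in DMF/alkylaryl polyglycol ether emulsifier and diluted in water. One day later inoculated with aqueous Pyrenophora teres spore suspension, then held 48 h at 22 °C and 100% relative humidity.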

The test system of a further series is Venturia inaequalis. Description: Example G: in vivo preventive test on Venturia inaequalis (apple scab). The settings on record: 100 ppm of active ingredient, evaluated 10 days after inoculation. The method, then:
In Vivo Preventive Test on Venturia inaequalis (Apple Scab) Solvent: 24.5 parts by weight of acetone • 24.5 parts by weight of N,N-dimethylacetamide Emulsifier: 1 part by weight of alkylaryl polyglycol ether To produce a suitable preparation of active compound, 1 part by weight of active compound is mixed with the stated amounts of solvent and emulsifier, and the concentrate is diluted with water to the desired concentration. To test for preventive activity, young plants are sprayed with the preparation of active compound at the stated rate of application. After the spray coating has dried on, the plants are inoculated with an aqueous conidia suspension of the causal agent of apple scab (Venturia inaequalis) and then remain for 1 day in an incubation cabinet at approximately 20° C. and a relative atmospheric humidity of 100%. The plants are then placed in a greenhouse at approximately 21° C. and a relative atmospheric humidity of approximately 90%.

In series [3] the test system is Septoria tritici. As to the kind of experiment: Example H: in vivo preventive test on Septoria tritici (wheat), N,N-dimethylacetamide/emulsifier preparation. The settings on record: 500 ppm of active ingredient, evaluated 21 days after inoculation. The protocol:
(§2) In Vivo Preventive Test on Septoria tritici (Wheat) Solvent: 49 parts by weight of N,N-dimethylacetamide Emulsifier: 1 part by weight of alkylaryl polyglycol ether To produce a suitable preparation of active compound, 1 part by weight of active compound or active compound combination is mixed with the stated amounts of solvent and emulsifier, and the concentrate is diluted with water to the desired concentration. To test for preventive activity, young plants are sprayed with the preparation of active compound or active compound combination at the stated rate of application. After the spray coating has been dried, the plants are sprayed with a spore suspension of Septoria tritici. The plants remain for 48 hours in an incubation cabinet at approximately 20° C. and a relative atmospheric humidity of approximately 100% and afterwards for 60 hours at approximately 15° C. in a translucent incubation cabinet at a relative atmospheric humidity of approximately 100%.

A further series deals with Alternaria solani. Description: Example C: in vivo preventive test on Alternaria solani (tomato). The settings on record: 500 ppm of active ingredient, evaluated 7 days after inoculation. Put shortly: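 Young tomato plants sprayed preventively with compound formulated in DMF/emulsifier and diluted with water, then inoculated one day later with Alternaria solani spores. Plants were held one day at about 22° C, 100% humidity, then at about 20° C, 96% humidity.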

For series [4], the system named is Blumeria graminis f.sp. hordei. Description: Example J: in vivo preventive test on Blumeria graminis (barley). The note with it: 500 ppm of active ingredient, evaluated 7 days after inoculation. The protocol: In Vivo Preventive Test on Blumeria graminis (Barley) Solvent: 49 parts by weight of N,N-dimethylacetamide Emulsifier: 1 part by weight of alkylaryl polyglycol ether To produce a suitable preparation of active compound, 1 part by weight of active compound or active compound combination is mixed with the stated amounts of solvent and emulsifier, and the concentrate is diluted with water to the desired concentration. To test for preventive activity, young plants are sprayed with the preparation of active compound or active compound combination at the stated rate of application. After the spray coating has been dried, the plants are dusted with spores of Blumeria graminis f.sp. hordei.

Series [5] deals with Fusarium nivale (var. majus). Description: Example N: in vivo preventive test on Fusarium nivale (wheat). The settings on record: 500 ppm of active ingredient, evaluated 5 days after inoculation. The protocol:
In Vivo Preventive Test on Fusarium nivale (Wheat) Solvent: 49 parts by weight of N,N-dimethylacetamide Emulsifier: 1 part by weight of alkylaryl polyglycol ether To produce a suitable preparation of active compound, 1 part by weight of active compound or active compound combination is mixed with the stated amounts of solvent and emulsifier, and the concentrate is diluted with water to the desired concentration. To test for preventive activity, young plants are sprayed with the preparation of active compound or active compound combination at the stated rate of application. After the spray coating has been dried, the plants are slightly injured by using a sandblast and afterwards they are sprayed with a conidia suspension of Fusarium nivale (var. majus). The plants are placed in the greenhouse under a translucent incubation cabinet at a temperature of approximately 10° C. and a relative atmospheric humidity of approximately 100%.

Another series deals with Puccinia triticina. Description: Example L: in vivo preventive test on Puccinia triticina (wheat). The settings on record: 500 ppm of active ingredient, evaluated 8 days after inoculation. The protocol: In Vivo Preventive Test on Puccinia triticina (Wheat)
Solvent: 49 parts by weight of N,N-dimethylacetamide
as §1
To produce a suitable preparation of active compound, 1 part by weight of active compound or active compound combination is mixed with the stated amounts of solvent and emulsifier, and the concentrate is diluted with water to the desired concentration.
To test for preventive activity, young plants are sprayed with the preparation of active compound or active compound combination at the stated rate of application.
After the spray coating has been dried, the plants are sprayed with a spore suspension of Puccinia triticina.
The plants remain for 48 hours in an incubation cabinet at approximately 20° C. and a relative atmospheric humidity of approximately 100%.
The plants are placed in the greenhouse at a temperature of approximately 20° C. and a relative atmospheric humidity of approximately 80%.
The test is evaluated 8 days after the inoculation. 0% means an efficacy which corresponds to that of the untreated control, while an efficacy of 100% means that no disease is observed.

The test system of a further series is Leptosphaeria nodorum. Description: Example K: in vivo preventive test on Leptosphaeria nodorum (wheat). The note with it: 500 ppm of active ingredient, evaluated 8 days after inoculation. The protocol:
as §2, with “Leptosphaeria nodorum” for “Septoria tritici”, “Leptosphaeria nodorum.” for “Septoria tritici.”, “approximately” for “approximately 100% and afterwards for 60 hours at approximately 15° C. in a translucent incubation cabinet at a relative atmospheric humidity of approximately”

The test system of series [6] is Sphaerotheca fuliginea. As to the kind of experiment: Example B: in vivo preventive test on Sphaerotheca fuliginea (powdery mildew on cucurbits), gherkin plants. The note with it: 500 ppm of active ingredient, grading 12 days after contamination. Put shortly:
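Gherkin plants grown at 24 °C were sprayed with compound at the Z11 cotyledon stage; controls received acetone/tween/DMSO/water without active. 24 h later, cotyledons were inoculated by spraying with Sphaerotheca fuliginea spores (100 000 spores per mL).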

The subject of the next series is Pyricularia oryzae. In kind it is in vivo. The note with it: Pyricularia oryzae on rice plants, preventive, 500 ppm of active ingredient, grading 6 days after contamination.
The test system of the next series is Puccinia recondita. As to the kind of experiment: Example M: in vivo preventive test on Puccinia recondita (brown rust on wheat). The note with it: 500 ppm of active ingredient, grading 12 days after contamination. Put shortly:
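Wheat (Scipion) sprayed with compound at 1-leaf stage, grown at 22° C. Inoculated 24 h later with a spore suspension at 100 000 spores per mL. Efficacy (%) graded 12 days after inoculation against solvent-treated controls.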

In series [7] the test system is Septoria tritici. Description: Example I: in vivo preventive test on Septoria tritici (wheat), acetone/tween/DMSO preparation. The settings on record: 500 ppm of active ingredient, grading 24 days after contamination. Put shortly:
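Scipion wheat grown at 22° C, sprayed at 1-leaf stage (10 cm); controls received acetone/tween/DMSO/water without active. Inoculated 24 h later with S. tritici spores (500 000/mL), held 72 h at 18° C, 100% RH, then 21 days at 90% RH. % efficacy vs controls scored 24 days post-inoculation.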

For seven compounds, chromatographic logP, Efficacy and logP results are on record in patent US9725414B2, “Fungicidal N-bicycloalkyl and N-tricycloalkyl pyrazole-4-(thio)carboxamide derivatives” (priority 2011, dated 2017).

As a reminder, the chromatographic logP is lipophilicity estimated from chromatographic retention. Compound `Cc1nn(C)c(F)c1C(=O)N(C1CC1)C(C)C12CC3CC(CC(C3)C1)C2` (stereo not shown) [Example 103, N-[1-(adamantan-1-yl)ethyl]-N-cyclopropyl-5-fluoro-1,3-dimethyl-1H-pyrazole-4-carboxamide] registered a chromatographic logP in series [1] of 4.3. The Efficacy with Sphaerotheca fuliginea [2] worked out at 96%; in the series with Botrytis cinerea it was 99%; with Pyrenophora teres it was 100%; with Venturia inaequalis, 100%; in the series on Septoria tritici [3], 100%; in the series with Alternaria solani, 100%.

Usually logP stands for a log measure of how a compound divides between an organic and an aqueous phase. On to `CC1CC(C)(C)C2CCCC(NC(=O)c3c(C(F)F)nn(C)c3F)C12` (stereo not shown) [Example 14], for which, in [1], the logP is recorded as 4.29. Also, the Efficacy with Sphaerotheca fuliginea [2] is 98%; in the series with Botrytis cinerea, 100%; in series [4], 90%; in the series on Pyrenophora teres, 100%; in the series with Venturia inaequalis it was 99%; in series [5], 88%. Further, the results for the Efficacy in the series with Puccinia triticina, with Septoria tritici [3] and in the series on Alternaria solani were 83%, 75% and 100%, respectively.

Take `CC(C1CC2CCC1C2)N(C(=O)c1cn(C)nc1C(F)F)C1CC1` (stereo not shown) [Example 94]: the logP in series [1] is reported as 3.52. Further, the Efficacy in the series on Sphaerotheca fuliginea [2] worked out at 100%; in the series with Botrytis cinerea it was 100%; in series [4] it was 89%; in the series on Pyrenophora teres it was 100%; in the series on Venturia inaequalis, 100%; in [5], 100%. The values for the Efficacy in the series on Leptosphaeria nodorum, with Septoria tritici [3] and with Alternaria solani were 80%, 100% and 100%, respectively.

Turning to `CC(N(C(=O)c1cn(C)nc1C(F)F)C1CC1)C12CC3CC(CC(C3)C1)C2` (stereo not shown) [Example 105], in series [1], the logP was 4.30. Also, the Efficacy in the series on Sphaerotheca fuliginea [2] came to 100%; in the series on Botrytis cinerea it was 100%; with Pyrenophora teres, 100%; with Venturia inaequalis it was 100%; in the series on Septoria tritici [3] it was 80%; with Alternaria solani it was 95%.

As for `CCc1nn(C)c(F)c1C(=O)N(C1CC1)C(C)C12CC3CC(CC(C3)C1)C2` (stereo not shown) [Example 104], the logP in [1] is 4.86. Also, the Efficacy with Sphaerotheca fuliginea [2] is 96%; in series [4], 78%; in the series with Pyrenophora teres it was 95%; with Leptosphaeria nodorum it was 83%; with Septoria tritici [3], 90%; with Alternaria solani, 95%.

Regarding `Cn1nc(C(F)F)c(C(=O)N(CC2(Cc3ccccc3)CC3CCC2C3)C2CC2)c1Cl` (stereo not shown) [Example 68], in [1], the logP stood at 5.06. Further, the Efficacy amounted to 98% with Sphaerotheca fuliginea [6], 80% in the series with Pyricularia oryzae, 75% with Puccinia recondita and 71% in the series with Septoria tritici [7].

For `CC(C1CC2CCC1C2)N(C(=S)c1c(C(F)F)nn(C)c1F)C1CC1` (stereo not shown) [Example 97], the logP in series [1] worked out at 4.47. Also, the Efficacy with Sphaerotheca fuliginea [2] amounted to 100%; in the series on Botrytis cinerea, 100%; in the series with Pyrenophora teres, 100%; in the series with Venturia inaequalis it was 98%; with Alternaria solani it was 95%.
